What all share (format): functional
Assay [1] in a line: Antiinflammatory activity in […] cells assessed as reduction in LPS-induced TNF-alpha release at 10 uM pre incubated for 1 hr followed by LPS stimulation and measured after 30 mins by ELISA.
Assay [2] in a line: Antiinflammatory activity in […] cells assessed as reduction in LPS-induced IL-6 release at 10 uM pre incubated for 1 hr followed by LPS stimulation and measured after 30 mins by ELISA. On the technique in general: In an ELISA, binding on a coated surface is turned into a signal by an enzyme label.
Assay [3] is described as follows: Antiinflammatory activity in […] cells assessed as reduction in LPS-induced NOX release at 10 uM pre incubated for 1 hr followed by LPS stimulation and measured after 30 mins by ELISA.

SMILES strings stand for the structures.

As for `CC(C)(C)c1ccc(Nc2nc(NCCOCCOCCN)nc(-c3ccc(C(C)(C)C)cc3)n2)cc1`, the results for the inhibition at 10 µM in assay [1], in assay [2] and in assay [3] were 23.2%, 32.8% and 29.2%, respectively.
As for `CC(C)(C)c1ccc(-c2nc(NCCOCCOCCN)nc(NCc3ccccc3)n2)cc1`, the inhibition – broadly, the relative decrease from the control value, in per cent – at 10 µM in assay [1] stood at 10.7%; in assay [2], 50%; in assay [3], 38.5%.
On to `CC(C)(C)c1ccc(-c2nc(NCCOCCOCCN)nc(NCc3ccc(Cl)cc3)n2)cc1`, for which the results for the inhibition at 10 µM in assay [1], in assay [2] and in assay [3] were 15.2%, 50% and 38.4%, respectively.
In the case of `CC(C)(C)c1ccc(-c2nc(NCCOCCOCCN)nc(NCc3ccco3)n2)cc1`, the figures for the inhibition at 10 µM in assay [1], in assay [2] and in assay [3] were 15.6%, 40.1% and 44.7%, respectively.
As for `CC(C)(C)c1ccc(-c2nc(NCCOCCOCCOCCN)nc(NCC3CCCO3)n2)cc1` (configuration not stated), the inhibition at 10 µM in assay [1] was 13.4%; in assay [2] it was 22.2%; in assay [3], 19.5%.
With `CC(C)(C)c1ccc(-c2nc(NCCOCCOCCN)nc(Nc3ccc(Cl)cc3)n2)cc1`, the inhibition at 10 µM in assay [1] was found to be 33.7%; in assay [2], 32.5%; in assay [3], 34.2%.
Consider `CC(C)(C)c1ccc(-c2nc(NCCOCCOCCN)nc(NCC3CCCCO3)n2)cc1` (configuration not stated), for which the inhibition at 10 µM in assay [1] is 10.4%; in assay [2], 56.7%; in assay [3], 46.1%.
The matching figures for `NCCOCCOCCNc1nc(NCC2CCCO2)nc(-c2ccc(F)cc2)n1` (configuration not stated): 15.1%, 33.4% and 23%.
`CC(C)(C)c1ccc(-c2nc(NCCOCCOCCN)nc(NCCc3ccccc3)n2)cc1`: the inhibition at 10 µM came out at 25.3% in assay [1], 40.2% in assay [2] and 23% in assay [3].
In the case of `COc1ccc(-c2nc(NCCOCCOCCN)nc(NCC3CCCO3)n2)cc1` (configuration not stated), the inhibition at 10 µM is 10.1% in assay [1], 50.1% in assay [2] and 38.4% in assay [3].
In the same order, the values of `CC(C)(C)c1ccc(-c2nc(NCCOCCOCCN)nc(NCC3CCCCC3)n2)cc1` are 36.4%, 24.7% and 21.5%.
The matching figures for `NCCOCCOCCNc1nc(NCC2CCCO2)nc(-c2ccccc2)n1` (configuration not stated): 10.6%, 26.7% and 30.7%.
Consider `NCCOCCOCCNc1nc(NCC2CCCO2)nc(-c2ccc(OC(F)(F)F)cc2)n1` (configuration not stated), for which the results for the inhibition at 10 µM in assay [1], in assay [2] and in assay [3] were 10.9%, 16.7% and 38.4%, respectively.
Take `NCCOCCOCCNc1nc(NCC2CCCO2)nc(-c2ccc(C(F)(F)F)cc2)n1` (configuration not stated): the figures for the inhibition at 10 µM in assay [1], in assay [2] and in assay [3] were 10.1%, 23.4% and 46.1%, respectively.
The matching figures for `CC(C)(C)c1ccc(CNc2nc(NCCOCCOCCN)nc(-c3ccc(C(C)(C)C)cc3)n2)cc1`: 55.2%, 46.7% and 38.4%.
In the same order, the values of `CC(C)(C)c1ccc(-c2nc(NCCOCCN)nc(NCC3CCCO3)n2)cc1` (configuration not stated) are 13.3%, 22.1% and 33.1%.
In the same order, the values of `Cc1ccc(-c2nc(NCCOCCOCCN)nc(NCC3CCCO3)n2)cc1` (configuration not stated) are 50.1%, 50% and 40%.
On to `CC(C)(C)c1ccc(-c2nc(NCCOCCOCCN)nc(NCc3cccc(F)c3)n2)cc1`, for which the inhibition at 10 µM in assay [1] is 35.6%; in assay [2], 46.7%; in assay [3] it was 38.5%.
On to `CC(C)(C)c1ccc(-c2nc(NCCOCCOCCN)nc(NCc3ccc(F)cc3)n2)cc1`, for which the inhibition at 10 µM in assay [1] is 30.1%; in assay [2], 53.3%; in assay [3], 46.1%.
